pIC50, pKi: −log10 of the molar value. Where a name gives a salt, the structure may show the parent alone. Read-outs that look alike come from different tables or passages of the source.
Tests used:
PAMPA permeability assay = format: in vitro ADME; conditions: for Papp at 5 h, 10 µM: pH 7, 10 μM
[1] = Pharmacokinetic measurements in rats (i.v., i.t., oral); format: in vivo; conditions: rat; for concentration at 0.1 h / concentration at 1.5 h / concentration at 6 h / concentration at 24 h: lung; for concentration at 0.1 h: read-out: lung concentration (nM) at time 0.1 h; for concentration at 1.5 h: read-out: lung concentration (nM) at time 1.5 h; for concentration at 6 h: read-out: lung concentration (nM) at time 6 h; for concentration at 24 h: read-out: lung concentration (nM) at time 24 h
PDGFRβ [2] = biological target: T1, PDGFRβ (Homo sapiens (Human), UniProt P09619); assay: PDGF-BB induced phosphorylation of PDGFRβ in fibroblasts (MRC5, HTRF); format: cell-based
MRC5 cells = assay: Cell viability assay in MRC5 cells (MTT)
PDGFRβ [3] = biological target: T1, PDGFRβ; assay: PDGFRβ enzyme inhibition (ADP-Glo assay); format: biochemical; conditions: mean, n = 2 (nintedanib n = 34)
[4] = male, CD, other: intra-tracheal
[5] = i.t. dose 0.1 (nintedanib 0.42)
[6] = i.t. dose 0.1 (nintedanib 0.42), 0.1 h
[7] = i.t. dose 0.1 (nintedanib 0.42), 1.5 h
[8] = i.t. dose 0.1 (nintedanib 0.42), 6 h
[9] = i.t. dose 0.1 (nintedanib 0.42), 24 h
[10] = i.v. dose 0.1 (nintedanib 0.42), 0.1 h
[11] = i.v. dose 0.1 (nintedanib 0.42), 1.5 h
[12] = i.v. dose 0.1 (nintedanib 0.42), 6 h
[13] = i.v. dose 0.1 (nintedanib 0.42), 24 h

T1 sequence (P09619 33-1106): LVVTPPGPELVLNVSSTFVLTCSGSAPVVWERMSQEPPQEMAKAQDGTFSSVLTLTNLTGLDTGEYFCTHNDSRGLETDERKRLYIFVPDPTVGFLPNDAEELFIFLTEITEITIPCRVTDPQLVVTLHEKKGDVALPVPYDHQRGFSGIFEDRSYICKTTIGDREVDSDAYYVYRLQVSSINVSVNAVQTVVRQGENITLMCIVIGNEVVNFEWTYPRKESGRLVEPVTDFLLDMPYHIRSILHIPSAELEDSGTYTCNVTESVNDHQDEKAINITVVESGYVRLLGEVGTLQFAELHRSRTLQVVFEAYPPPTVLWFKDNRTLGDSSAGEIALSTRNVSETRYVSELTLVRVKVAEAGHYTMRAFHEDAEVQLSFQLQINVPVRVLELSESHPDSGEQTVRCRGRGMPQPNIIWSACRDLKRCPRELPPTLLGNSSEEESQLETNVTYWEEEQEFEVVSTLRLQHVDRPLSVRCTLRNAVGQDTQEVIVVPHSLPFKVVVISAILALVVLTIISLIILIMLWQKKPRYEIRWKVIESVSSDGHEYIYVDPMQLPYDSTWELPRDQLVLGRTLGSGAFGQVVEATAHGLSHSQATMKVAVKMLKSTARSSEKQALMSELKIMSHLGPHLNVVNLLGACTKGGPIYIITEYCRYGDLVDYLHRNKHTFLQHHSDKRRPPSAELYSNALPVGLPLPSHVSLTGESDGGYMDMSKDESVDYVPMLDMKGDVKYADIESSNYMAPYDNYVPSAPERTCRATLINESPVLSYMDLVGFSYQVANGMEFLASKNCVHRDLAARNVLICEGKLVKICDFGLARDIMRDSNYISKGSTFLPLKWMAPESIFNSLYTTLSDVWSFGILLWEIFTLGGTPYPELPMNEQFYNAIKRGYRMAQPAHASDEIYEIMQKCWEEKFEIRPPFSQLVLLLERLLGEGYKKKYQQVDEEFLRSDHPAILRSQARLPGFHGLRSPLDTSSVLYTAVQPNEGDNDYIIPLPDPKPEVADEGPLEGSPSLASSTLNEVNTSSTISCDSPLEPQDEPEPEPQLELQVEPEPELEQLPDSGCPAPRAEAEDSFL

## COC(=O)c1cc2c(cc1C)/C(=C(/Nc1ccc(C(=O)NCCN3CCNC(=O)C3)cc1)c1ccccc1)C(=O)N2 [Example 9, (Z)-Methyl 5-methyl-2-oxo-3-(((4-((2-(3-oxopiperazin-1-yl)ethyl)carbamoyl)phenyl)amino) (phenyl)methylene)indoline-6-carboxylate]
PAMPA permeability assay; pH 7, PAMPA
  recovery at 5 hr, 10 μM: 72.7%
  Papp at 5 h, 10 µM: 0.0146 ×10⁻⁶ cm/s
[1]; male, CD, iv
  concentration at 0.1 h: 494 nM
  concentration at 1.5 h: 174 nM
  concentration at 6 h: 235 nM
  concentration at 24 h: 502 nM
[1]; [4]
  concentration at 0.1 h: 5700 nM
  concentration at 1.5 h: 8810 nM
  concentration at 6 h: 10500 nM
  concentration at 24 h: 10500 nM
[1]; male, CD, lung/plasma, iv, read-out: lung/plasma ratio at time 0.1 h
  Kp at 0.1 h: 17
[1]; male, CD, lung/plasma, iv, read-out: lung/plasma ratio at time 1.5 h
  Kp at 1.5 h: 55
[1]; male, CD, lung/plasma, iv, read-out: lung/plasma ratio at time 6 h
  Kp at 6 h: > 326
[1]; male, CD, lung/plasma, iv, read-out: lung/plasma ratio at time 24 h
  Kp at 24 h: > 697
[1]; male, CD, lung/plasma, other: intra-tracheal, read-out: lung/plasma conc ratio at time 0.1 h
  Kp at 0.1 h: > 7890
[1]; male, CD, plasma, iv
  MRT: 1.1 h
  clearance: 90 mL/min/kg
  half-life: 1.1 h
[1]; male, CD, plasma, iv, read-out: Vss
  Vd: 7 L/kg
[1]; 0.1 h
  Lung conc i.t./i.v. Ratio at time 0.1 h: 12
[1]; 1.5 h
  Lung conc i.t./i.v. Ratio at time 1.5 h: 51
[1]; 6 h
  Lung conc i.t./i.v. Ratio at time 6 h: 45
[1]; 24 h
  Lung conc i.t./i.v. Ratio at time 24 h: 21
[1]; [5]
  i.t. BAV (%): <40%
[1]; [6]
  BAL % administered dose at time 0.1 h: 13.7%
[1]; [7]
  BAL % administered dose at time 1.5 h: 5.2%
  lung/plasma conc ratio at time 1.5 h: >12197
[1]; [8]
  BAL % administered dose at time 6 h: 2.3%
  lung/plasma conc ratio at time 6 h: >14485
[1]; [9]
  BAL % administered dose at time 24 h: 0.5%
  lung/plasma conc ratio at time 24 h: >14483
[1]; [10]
  BAL % administered dose at time 0.1 h: BQL
[1]; [11]
  BAL % administered dose at time 1.5 h: BQL
[1]; [12]
  BAL % administered dose at time 6 h: BQL
[1]; [13]
  BAL % administered dose at time 24 h: BQL
[1]; oral dose 3 mg/kg
  Oral BAV (%): <2%
PDGFRβ [2]; MRC5 cells, PDGFBB stimulation, read-out: PDGFBB-induced PDGFRβ phosphorylation in MRC5 cells (IC50)
  pIC50: 7.85
MRC5 cells
  Cell viability at 100 nM (%): 102%
  Cell viability at 300 nM (%): 103.6%
  Cell viability at 1000 nM (%): 97.5%
PDGFRβ [3]
  pKi: 8.10

## COC(=O)c1cc2c(cc1C)/C(=C(/Nc1ccc(C(=O)NC3CCN(C)CC3)cc1)c1ccccc1)C(=O)N2 [Example 18, (Z)-Methyl-5-methyl-3-(((4-((1-methylpiperidin-4-yl)carbamoyl)phenyl)amino)(phenyl)methylene)-2-oxoindoline-6-carboxylate, formate]
PAMPA permeability assay; pH 7
  recovery at 5 hr, 10 μM: 84.5%
PAMPA permeability assay
  Papp at 5 h, 10 µM: 0.00383 ×10⁻⁶ cm/s
[1]; male, CD, iv
  concentration at 0.1 h: 638 nM
  concentration at 1.5 h: 306 nM
  concentration at 6 h: 201 nM
[1]; [4]
  concentration at 0.1 h: 6530 nM
  concentration at 1.5 h: 5990 nM
  concentration at 6 h: 2350 nM
  concentration at 24 h: 4520 nM
[1]; male, CD, plasma, iv
  half-life: 5.1 h
[1]; [5]
  i.t. BAV (%): 39%
[1]; [6]
  BAL % administered dose at time 0.1 h: 6.7%
[1]; [7]
  BAL % administered dose at time 1.5 h: 2.2%
[1]; [8]
  BAL % administered dose at time 6 h: 0.4%
[1]; [9]
  BAL % administered dose at time 24 h: 0.3%
[1]; [10]
  BAL % administered dose at time 0.1 h: 0.13%
[1]; [11]
  BAL % administered dose at time 1.5 h: 0%
[1]; [12]
  BAL % administered dose at time 6 h: BQL
[1]; [13]
  BAL % administered dose at time 24 h: BQL
PDGFRβ [2]
  pIC50: 7.77
MRC5 cells
  Cell viability at 100 nM (%): 98.2%
  Cell viability at 300 nM (%): 97.3%
  Cell viability at 1000 nM (%): 91.8%
PDGFRβ [3]
  pKi: 8.10
